Counter-ions that a name gives are not always drawn.
system: not given; experiment: not given; conditions: PAMPA

In order of rising AMP:
1. CN1CCC(C(=O)Nc2nc(-c3ccc(F)cc3)c(-c3ccnc(Nc4ccc(N5CCNCC5)cc4)n3)s2)CC1 [Compound 16, N-[4-(4-Fluorophenyl)-5-{2-[4-(piperazin-1-yl)anilino]pyrimidin-4-yl}-1,3-thiazol-2-yl]-1-methylpiperidine-4-carboxamide Trifluoroacetate]  0.1
2. Oc1cc(Nc2nccc(-c3sc(C4CCNCC4)nc3-c3ccc(F)cc3)n2)ccn1 [Compound 33, 4-({4-[4-(4-Fluorophenyl)-2-(piperidin-4-yl)-1,3-thiazol-5-yl]pyrimidin-2-yl}amino)pyridin-2-ol Trifluoroacetate]  0.2
3. O=C(Nc1nc(-c2ccc(F)cc2)c(-c2ccnc(Nc3ccc(N4CCNCC4)cc3)n2)s1)C1CC1 [Compound 15, N-[4-(4-Fluorophenyl)-5-{2-[4-(piperazin-1-yl)anilino]pyrimidin-4-yl}-1,3-thiazol-2-yl]cyclopropanecarboxamide Trifluoroacetate]  0.2
4. O=S(=O)(Nc1nc(-c2ccc(F)cc2)c(-c2ccnc(Nc3ccc(N4CCNCC4)cc3)n2)s1)C1CCNCC1 [Compound 18, N-[4-(4-Fluorophenyl)-5-{2-[4-(piperazin-1-yl)anilino]pyrimidin-4-yl}-1,3-thiazol-2-yl]piperidine-4-sulfonamide Trifluoroacetate]  0.3
5. CCCS(=O)(=O)Nc1nc(-c2ccc(F)cc2)c(-c2ccnc(Nc3ccc(N4CCNCC4)cc3)n2)s1 [Compound 17, N-[4-(4-Fluorophenyl)-5-{2-[4-(piperazin-1-yl)anilino]pyrimidin-4-yl}-1,3-thiazol-2-yl]propane-1-sulfonamide Trifluoroacetate]  0.3
6. CCOc1nccc(Nc2nccc(-c3sc(C4CCNCC4)nc3-c3ccc(F)cc3)n2)n1 [Compound 30, N-(2-Ethoxypyrimidin-4-yl)-4-[4-(4-fluorophenyl)-2-(piperidin-4-yl)-1,3-thiazol-5-yl]pyrimidin-2-amine Trifluoroacetate]  1.7
7. c1cc(Nc2nccc(-c3sc(C4CCNCC4)nc3C3CC3)n2)ncn1 [Compound 58, 4-(4-Cyclopropyl-2-(piperidin-4-yl)thiazol-5-yl)-N-(pyrimidin-4-yl)pyrimidin-2-amine Hydrochloride]  1.8
8. COc1cc(Nc2nccc(-c3sc(C4CCNCC4)nc3-c3ccc(F)cc3)n2)cc(C)n1 [Compound 34, 4-[4-(4-Fluorophenyl)-2-(piperidin-4-yl)-1,3-thiazol-5-yl]-N-(2-methoxy-6-methylpyridin-4-yl)pyrimidin-2-amine Trifluoroacetate]  1.9
9. CN1CCN(c2ccc(Nc3nccc(-c4sc(N)nc4-c4ccc(F)cc4)n3)cc2)CC1 [Compound 11, 4-[2-Amino-4-(4-fluorophenyl)-1,3-thiazol-5-yl]-N-[4-(4-methylpiperazin-1-yl)phenyl]pyrimidin-2-amine Trifluoroacetate]  2.6
10. Fc1ccc(-c2nc(N3CCCC3)sc2-c2ccnc(Nc3ccc(N4CCNCC4)cc3)n2)cc1 [Compound 10, 4-[4-(4-Fluorophenyl)-2-(pyrrolidin-1-yl)-1,3-thiazol-5-yl]-N-[4-(piperazin-1-yl)phenyl]pyrimidin-2-amine Trifluoroacetate]  2.7
11. Fc1ccc(-c2nc(N3CCOCC3)sc2-c2ccnc(Nc3ccc(N4CCNCC4)cc3)n2)cc1 [Compound 9, 4-[4-(4-Fluorophenyl)-2-(morpholin-4-yl)-1,3-thiazol-5-yl]-N-[4-(piperazin-1-yl)phenyl]pyrimidin-2-amine Trifluoroacetate]  2.8

same assay, conditions: Tables 2 and 5

In order of falling AMP:
1. Fc1ccc(-c2nc(C3CCNCC3)sc2-c2ccnc(Nc3cccnn3)n2)cc1 [Compound 27, N-(4-(4-(4-Fluorophenyl)-2-(piperidin-4-yl)thiazol-5-yl)pyrimidin-2-yl)pyridazin-3-amine]  1.9e-06 cm/s
2. Cc1nccc(Nc2nccc(-c3sc(C4CCNCC4)nc3-c3ccc(F)cc3)n2)n1 [Compound 29, 4-[4-(4-Fluorophenyl)-2-(piperidin-4-yl)-1,3-thiazol-5-yl]-N-(2-methylpyrimidin-4-yl)pyrimidin-2-amine]  1.8e-06 cm/s
3. Fc1ccc(-c2nc(C3CCNCC3)sc2-c2ccnc(Nc3cnccn3)n2)cc1 [Compound 26, 4-(4-(4-Fluorophenyl)-2-(piperidin-4-yl)thiazol-5-yl)-N-(pyrazin-2-yl)pyrimidin-2-amine]  1.6e-06 cm/s

`Fc1ccc(-c2nc(C3CCNCC3)sc2-c2ccnc(Nc3nncs3)n2)cc1` [Compound 19, N-(4-(4-(4-Fluorophenyl)-2-(piperidin-4-yl)thiazol-5-yl)pyrimidin-2-yl)-1,3,4-thiadiazol-2-amine] gave an AMP of less than 1e-07 cm/s.

target: HSA (Homo sapiens, UniProt P02768); experiment: HSA binding (plasma protein binding); type: in vitro ADME; conditions: not given
Sequence (P02768 25-609): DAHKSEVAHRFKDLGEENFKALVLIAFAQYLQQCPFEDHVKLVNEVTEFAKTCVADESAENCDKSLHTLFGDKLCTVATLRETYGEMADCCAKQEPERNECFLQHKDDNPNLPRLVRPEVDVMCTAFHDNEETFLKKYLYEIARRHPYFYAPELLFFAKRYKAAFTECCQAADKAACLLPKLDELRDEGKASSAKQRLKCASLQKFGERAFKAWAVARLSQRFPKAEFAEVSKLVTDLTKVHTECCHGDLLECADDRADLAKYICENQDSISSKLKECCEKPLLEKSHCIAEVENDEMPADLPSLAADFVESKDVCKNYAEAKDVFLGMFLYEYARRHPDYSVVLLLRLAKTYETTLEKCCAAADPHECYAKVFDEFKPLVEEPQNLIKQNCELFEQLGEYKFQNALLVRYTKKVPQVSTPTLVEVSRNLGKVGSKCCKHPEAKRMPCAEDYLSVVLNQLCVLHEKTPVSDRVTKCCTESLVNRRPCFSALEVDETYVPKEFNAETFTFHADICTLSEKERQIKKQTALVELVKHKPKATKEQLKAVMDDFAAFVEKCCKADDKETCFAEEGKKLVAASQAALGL

In order of falling HSA binding:
1. Nc1nc(-c2ccc(F)cc2)c(-c2ccnc(Nc3ccc(N4CCNCC4)cc3)n2)s1 [Compound 12, 4-[2-Amino-4-(4-fluorophenyl)-1,3-thiazol-5-yl]-N-[4-(piperazin-1-yl)phenyl]pyrimidin-2-amine]  98%
2. Cc1nc(Nc2nccc(-c3sc(C4CCNCC4)nc3-c3ccc(F)cc3)n2)cc(C2CCC2)c1F [Compound 38, N-(4-Cyclobutyl-5-fluoro-6-methylpyridin-2-yl)-4-(4-(4-fluorophenyl)-2-(piperidin-4-yl)thiazol-5-yl)pyrimidin-2-amine]  98%
3. CCOC(=O)N1CCC(c2nc(-c3ccc(F)cc3)c(-c3ccnc(Nc4ccc(N5CCN(C)CC5)cc4)n3)s2)CC1 [Compound 8]  98%
4. CCc1cc(Nc2nccc(-c3sc(C4CCNCC4)nc3-c3ccc(F)cc3)n2)nc(C)c1F [Compound 36, N-(4-Ethyl-5-fluoro-6-methylpyridin-2-yl)-4-(4-(4-fluorophenyl)-2-(piperidin-4-yl)thiazol-5-yl)pyrimidin-2-amine]  97%
5. Fc1ccc(-c2nc(C3CCNCC3)sc2-c2ccnc(N3CCC(CN4CCOCC4)CC3)n2)cc1 [Compound 57, 4-((1-(4-(4-(4-Fluorophenyl)-2-(piperidin-4-yl)thiazol-5-yl)pyrimidin-2-yl)piperidin-4-yl)methyl)morpholine]  93%
6. Fc1ccc(-c2nc(C3CCNCC3)sc2-c2ccnc(N3CCCC3)n2)cc1 [Compound 53, 4-[4-(4-Fluorophenyl)-2-(piperidin-4-yl)-1,3-thiazol-5-yl]-2-(pyrrolidin-1-yl)pyrimidine]  93%
7. Fc1ccc(-c2nc(C3CCNCC3)sc2-c2ccnc(Nc3cnccn3)n2)cc1 [Compound 26, 4-(4-(4-Fluorophenyl)-2-(piperidin-4-yl)thiazol-5-yl)-N-(pyrazin-2-yl)pyrimidin-2-amine]  92%
8. Fc1ccc(-c2nc(C3CCNCC3)sc2-c2ccnc(Nc3nncs3)n2)cc1 [Compound 19, N-(4-(4-(4-Fluorophenyl)-2-(piperidin-4-yl)thiazol-5-yl)pyrimidin-2-yl)-1,3,4-thiadiazol-2-amine]  92%
9. Cc1nccc(Nc2nccc(-c3sc(C4CCNCC4)nc3-c3ccc(F)cc3)n2)n1 [Compound 29, 4-[4-(4-Fluorophenyl)-2-(piperidin-4-yl)-1,3-thiazol-5-yl]-N-(2-methylpyrimidin-4-yl)pyrimidin-2-amine]  91%
10. CN(C)C(CNc1nccc(-c2sc(C3CCNCC3)nc2-c2ccc(F)cc2)n1)C1CC1 (centres unmarked) [Compound 46, 1-Cyclopropyl-N′-{4-[4-(4-fluorophenyl)-2-(piperidin-4-yl)-1,3-thiazol-5-yl]pyrimidin-2-yl}-N,N-dimethylethane-1,2-diamine]  91%
11. Fc1ccc(-c2nc(C3CCNCC3)sc2-c2ccnc(N3CCC(N4CCC4)CC3)n2)cc1 [Compound 55, 2-[4-(Azetidin-1-yl)piperidin-1-yl]-4-[4-(4-fluorophenyl)-2-(piperidin-4-yl)-1,3-thiazol-5-yl]pyrimidine]  90%
12. Fc1ccc(-c2nc(C3CCNCC3)sc2-c2ccnc(Nc3cccnn3)n2)cc1 [Compound 27, N-(4-(4-(4-Fluorophenyl)-2-(piperidin-4-yl)thiazol-5-yl)pyrimidin-2-yl)pyridazin-3-amine]  90%
13. Fc1ccc(-c2nc(C3CCNCC3)sc2-c2ccnc(N3CCC(N4CCOCC4)CC3)n2)cc1 [Compound 56, 4-(1-(4-(4-(4-Fluorophenyl)-2-(piperidin-4-yl)thiazol-5-yl)pyrimidin-2-yl)piperidin-4-yl)morpholine]  90%
14. CN1CCN(CCNc2nccc(-c3sc(C4CCNCC4)nc3-c3ccc(F)cc3)n2)CC1 [Compound 48, 4-[4-(4-Fluorophenyl)-2-(piperidin-4-yl)-1,3-thiazol-5-yl]-N-[2-(4-methylpiperazin-1-yl)ethyl]pyrimidin-2-amine]  90%
15. CN1CCC(Nc2nccc(-c3sc(C4CCNCC4)nc3-c3ccc(F)cc3)n2)C1 (centres unmarked) [Compound 52, 4-[4-(4-Fluorophenyl)-2-(piperidin-4-yl)-1,3-thiazol-5-yl]-N-(1-methylpyrrolidin-3-yl)pyrimidin-2-amine]  89%
16. Fc1ccc(-c2nc(C3CCNCC3)sc2-c2ccnc(NCC3CCCO3)n2)cc1 (centres unmarked) [Compound 44, 4-[4-(4-Fluorophenyl)-2-(piperidin-4-yl)-1,3-thiazol-5-yl]-N-(tetrahydrofuran-2-ylmethyl)pyrimidin-2-amine]  86%
17. Fc1ccc(-c2nc(C3CCNCC3)sc2-c2ccnc(NCCN3CCCC3)n2)cc1 [Compound 47, 4-[4-(4-Fluorophenyl)-2-(piperidin-4-yl)-1,3-thiazol-5-yl]-N-[2-(pyrrolidin-1-yl)ethyl]pyrimidin-2-amine]  86%
18. O[C@H]1CC[C@H](Nc2nccc(-c3sc(C4CCNCC4)nc3-c3ccc(F)cc3)n2)CC1 [Compound 51, trans-4-({4-[4-(4-Fluorophenyl)-2-(piperidin-4-yl)-1,3-thiazol-5-yl]pyrimidin-2-yl}amino)cyclohexanol]  85%
19. OC1CCN(c2nccc(-c3sc(C4CCNCC4)nc3-c3ccc(F)cc3)n2)C1 (centres unmarked) [Compound 54, 1-{4-[4-(4-Fluorophenyl)-2-(piperidin-4-yl)-1,3-thiazol-5-yl]pyrimidin-2-yl}pyrrolidin-3-ol]  85%
20. CN(C)CCNc1nccc(-c2sc(C3CCNCC3)nc2-c2ccc(F)cc2)n1 [Compound 45, N′-{4-[4-(4-Fluorophenyl)-2-(piperidin-4-yl)-1,3-thiazol-5-yl]pyrimidin-2-yl}-N,N-dimethylethane-1,2-diamine]  83%
21. Fc1ccc(-c2nc(C3CCNCC3)sc2-c2ccnc(NCCN3CCOCC3)n2)cc1 [Compound 49, 4-(4-(4-Fluorophenyl)-2-(piperidin-4-yl)thiazol-5-yl)-N-(2-morpholinoethyl)pyrimidin-2-amine]  83%
22. COCCNc1nccc(-c2sc(C3CCNCC3)nc2-c2ccc(F)cc2)n1 [Compound 43, 4-[4-(4-Fluorophenyl)-2-(piperidin-4-yl)-1,3-thiazol-5-yl]-N-(2-methoxyethyl)pyrimidin-2-amine]  80%
23. OCCNc1nccc(-c2sc(C3CCNCC3)nc2-c2ccc(F)cc2)n1 [Compound 42, 2-({4-[4-(4-Fluorophenyl)-2-(piperidin-4-yl)-1,3-thiazol-5-yl]pyrimidin-2-yl}amino)ethanol]  79%

Reference: paper PMC6816013 (Journal of Medicinal Chemistry, 2019)
